# Patent publication US9326971B2, “4-methylpyrazole formulations for inhibiting ethanol intolerance” (Raptor Pharmaceuticals Inc., priority 2004, dated 2016)
# Where two headings read alike, the source gives them in different places.
# Tests used:
# [1] = test system: serum acetaldehyde concentration; experiment: Blinded, intra-subject controlled single dose study: serum acetaldehyde after oral 4-MP and ethanol in ethanol-intolerant subjects genotyped for ALDH2 and ADH2; assay type: in vivo, human
# Description: A blinded, intra-subject controlled, single dose, dose escalation study of 4-MP for mitigation of acetaldehyde related toxicity in subjects with symptoms of inborn altered ethanol metabolism with concomitant ethanol exposure was undertaken.
# Twenty-four subjects (n=24) were randomly selected and orally administered 1 mg/kg, 3 mg/kg, or 5 mg/kg of 4-MP, followed 30 minutes later by an oral dose of 20% ethanol ([…]).
# Using the same protocol, wherein 4-MP was replaced with placebo, each of the twenty-four randomly selected subjects served as its own control.
# The twenty-four randomly selected subjects were then subjected to blood sampling, and the sampled blood analyzed for acetaldehyde levels at select time points following ethanol consumption.
# For acetaldehyde analysis, blood samples were prepared by dilution with an internal standard (acetaldehyde-d4), with derivatization of acetaldehyde with dinitrophenyl hydrazine in hydrochloric acid, liquid-liquid portioning and solvent exchange. The derivatization forms an acetaldehyde-dinitrophenyl hydrazine (DNPH) derivative which dramatically increases the boiling point of the molecule and thus its relative stability compared to the acetaldehyde itself (Nagy et al., Rapid Communications in Mass Spectrometry 2004, 18, 2473-2478). The derivatized analytes were separated using a Jones Chromatography (Grace-Vydac), 50 mm×2.1 mm, 3 μm column held in an oven set at 28° C. Two mobile phases were used in a gradient consisting of 30:70 acetonitrile:water versus 90:10 acetonitrile:water with 0.1% formic acid. The derivatized analyte was detected on a High Performance Liquid Chromatograph equipped with a Mass Spectrometer (HPLC/MS/MS). Quantitation was performed using a linear regression curve fit of impurities standards with 1/x weighting, prepared from dilutions of acetaldehyde in water. Samples and standards were injected at 2 μL.
# All […] subjects were then genotyped for ALDH2 and ADH2 at the Alcohol Research Center at Indiana University using (i) genomic DNA isolation and (ii) TaqMan assay for allelic discrimination. • i. Genomic DNA isolation: DNA was first isolated using the “HotSHOT” method for isolating PCR quality genomic DNA (Truett et al., Biotechniques 2000, 29(1), 52-54). Briefly, blood blotted on filter paper (3 mm circle) was placed in the well of a 96-well plate and mixed with 75 μL 25 mM NaOH/0.3 mM EDTA solution and heated to 95° C. for 40 minutes, followed by neutralization with 75 μL 40 mM Tris-HCl (pH 5) solution. 1-5 microliters were used for each PCR. • ii. TaqMan Assay for Allelic Discrimination: The allelic discrimination assay used a multiplexed (more than one primer/probe pair per reaction), end-point (data is collected at the end of the PCR process) assay. Each assay mix contained two different TaqMan probes (Applied BioSystems, Foster City, Calif.), labeled with VIC or FAM fluorescent reporter dye, which bound preferentially to one of the alleles. The genotype of each sample was determined by the fluorescence levels of the reporter dyes and was clustered on a graph with other samples of the same genotype. Each reaction contained 5 μL of 2×TaqMan Universal PCR Masternix, No AmpErase UNG, 3.75 μL of water, 0.25 μL of 40× Assay Mix, and 1 μL of DNA sample. Eight or eleven controls were included on each 96-well plate: two no template controls, two or three heterozygous samples, and two or three of each of the homozygous samples. Thermocycling was carried out in MJ Research PTC-200 thermocyclers. The PCR products were then analyzed in an ABI PRISM® 7300 Sequence Detection System (SDS) instrument. SDS Software 1.3.1 converted the raw data to pure dye components and plotted the results of the allelic discrimination on a scatter plot of Allele X versus Allele Y (e.g., ADH2*1 versus ADH2*2); each genotype appeared on the graph as a cluster of points. […]
# ethanol elimination rate [2] = conditions: human subjects, cited from earlier work
# ethanol elimination rate [3] = experiment: Percent reduction in ethanol elimination rate versus dose of 4-MP in human subjects (literature data, FIG. 2); assay type: in vivo; conditions: doses of 4 mg/kg 4-MP and less; from linear least squares fit of literature data (FIG. 2)
# Excerpt: As used herein, “ethanol elimination rate” refers to the reduction in ethanol concentration in a subject's bloodstream over time after the subject has ingested ethanol. Typically, an ethanol elimination rate can be expressed in terms of millimole ethanol/kilogram subject body mass/hour. Techniques for blood sampling and analysis of ethanol levels in blood are well known to those of skill in the art. See, e.g., Inoue et al., Alcoholism: Clinical and Experimental Research 1984, 8, 319-322, incorporated herein by reference in its entirety. A “percent change in ethanol elimination rate,” can be calculated as follows:
# [formula] where EtOH represents ethanol, and a number for a percent change in ethanol elimination that is less than 100 is a reduction in the percent change in EtOH elimination. Blood ethanol levels can also be calculated, for example, based on algorithms utilizing the amount of ethanol consumed by a subject, the subject's body mass, and time period since the consumption of ethanol, or, as another example, blood ethanol levels can be extrapolated from analysis of a subject's breath, and the like, as known to those of skill in the art. […]
# [4] = all subjects with reduced or absent ALDH2 activity, 1, 3 or 5 mg/kg 4-MP
# [5] = reduced ALDH2 activity, ADH2*1/ADH2*1 or ADH2*1/ADH2*2, 1 mg/kg 4-MP
# [6] = reduced or absent ALDH2 activity, ADH2*2/ADH2*2, 1 mg/kg 4-MP
structure (smiles),measurement,setting,value
"Cc1cn[nH]c1 [4-MP, 4-methylpyrazole]","Cmax mean and AUC0-8H mean of acetaldehyde concentration in the blood, versus absence of 4-MP (in words)",[1]; [4],not significantly reduced
same,"peak mean acetaldehyde concentration in the blood due to drinking ethanol (FIG. 5), versus placebo",[1]; [4],not reduced
same,"Cmax mean and AUC0-8H mean of acetaldehyde concentration in the blood, versus absence of 4-MP (in words)",[1]; [5],significantly reduced
same,"peak mean acetaldehyde concentration in the blood due to drinking ethanol (FIG. 3), versus placebo",[1]; [5],can be reduced
same,"Cmax mean and AUC0-8H mean of acetaldehyde concentration in the blood, versus absence of 4-MP (in words)",[1]; [6],not significantly reduced
same,"peak mean acetaldehyde concentration in the blood due to drinking ethanol (FIG. 4), versus placebo",[1]; [6],not reduced
same,reduction in EtOH elimination,"ethanol elimination rate [2]; 6 mg 4-MP per kilogram body weight, Lindros et al. 1981",20%
same,reduction in EtOH elimination,"ethanol elimination rate [2]; 8.5 mg 4-MP per kilogram body weight, Inoue et al. 1985",12%
same,reduction in EtOH elimination,"ethanol elimination rate [2]; 10 mg 4-MP per kilogram body weight, Inoue et al. 1984",20%
same,reduction in EtOH elimination,"ethanol elimination rate [2]; 12.5 mg 4-MP per kilogram body weight, Sarkola et al. 2002",34%
same,reduction in ethanol elimination,ethanol elimination rate [3],less than 10%
